Experimental data reported in ChEMBL document CHEMBL1212923, “Synthesis and in vivo evaluation of phenethylpiperazine amides: selective 5-hydroxytryptamine(2A) receptor antagonists for the treatment of insomnia” (J Med Chem, 2010).
The source made the active and inactive calls. No cut-off for these calls is given here.

How the values were obtained:
[1] = molecular target: T1, 5-hydroxytryptamine receptor 2C (Homo sapiens, UniProt P28335); type: cell-based, HEK293
T1 sequence (P28335 whole entry): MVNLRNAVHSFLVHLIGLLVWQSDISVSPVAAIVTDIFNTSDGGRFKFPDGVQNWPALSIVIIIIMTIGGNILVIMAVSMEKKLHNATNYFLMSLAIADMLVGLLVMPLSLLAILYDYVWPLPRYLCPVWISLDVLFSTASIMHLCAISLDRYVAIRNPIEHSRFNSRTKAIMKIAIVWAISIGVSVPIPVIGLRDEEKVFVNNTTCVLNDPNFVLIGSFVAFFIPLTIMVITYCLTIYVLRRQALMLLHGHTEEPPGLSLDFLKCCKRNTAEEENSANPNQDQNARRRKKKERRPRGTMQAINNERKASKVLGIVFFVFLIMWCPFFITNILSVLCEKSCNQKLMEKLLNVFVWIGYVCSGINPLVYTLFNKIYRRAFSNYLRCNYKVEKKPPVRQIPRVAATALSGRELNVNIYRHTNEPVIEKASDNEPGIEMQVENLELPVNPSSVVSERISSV

[2] = molecular target: 5-hydroxytryptamine receptor 2A (Homo sapiens, UniProt P28223); experiment: biochemical
Description: Displacement of [125I]DOI from human recombinant 5HT2A receptor expressed in HEK293 cells after 1 hr by scintillation counting

[3] = Drug level in Sprague-Dawley rat plasma at 3 mg/kg, po after 0.75 hrs; type: ADME, organism-based; parameters: dose 3 mg/kg, route oral; settings: read-out: Drug uptake
[4] = Ratio of drug level in brain to plasma in Sprague-Dawley rat at 3 mg/kg, po after 0.75 hrs; type: ADME, organism-based; parameters: dose 3 mg/kg, route oral
[5] = Drug level in Sprague-Dawley rat brain at 3 mg/kg, po after 0.75 hrs; type: ADME, organism-based; parameters: dose 3 mg/kg, route oral; settings: read-out: Drug uptake
[6] = Half life in Sprague-Dawley rat at 10 mg/kg, po; type: ADME, organism-based; parameters: dose 10 mg/kg, route oral; settings: in vivo
[7] = Cmax in Sprague-Dawley rat at 10 mg/kg, po; type: ADME, organism-based; parameters: dose 10 mg/kg, route oral; settings: in vivo
[8] = Oral bioavailability in Sprague-Dawley rat at 10 mg/kg relative to 2 mg/kg, iv dose; type: ADME, organism-based; settings: in vivo
[9] = AUClast in Sprague-Dawley rat at 10 mg/kg, po; type: ADME, organism-based; parameters: time 0 - last, dose 10 mg/kg, route oral; settings: plasma
Rattus norvegicus [10] = experiment: Inhibition of DOI-induced hypolocomotion in po dosed Sprague-Dawley rat administered 25 mins before DOI challenge measured after 10 mins; type: functional, organism-based
Rattus norvegicus [11] = experiment: Hepatic blood flow in Sprague-Dawley rat at 10 mg/kg, po; type: ADME, organism-based, Liver; parameters: dose 10 mg/kg, route oral; settings: in vivo
hERG (KCNH2) = hERG (KCNH2) (Homo sapiens, UniProt Q12809); experiment: Inhibition of human ERG at 3 uM by patch clamp electrophysiology assay
[12] = Total clearance in Sprague-Dawley rat at 2 mg/kg, iv; type: ADME, organism-based; parameters: dose 2 mg/kg, route intravenous; settings: in vivo
[13] = Half life in rat liver microsomes; type: ADME, Microsome
Rattus norvegicus [14] = experiment: Volume of distribution at steady state in Sprague-Dawley rat at 10 mg/kg, po; type: ADME, organism-based; parameters: dose 10 mg/kg, route oral; settings: in vivo
Rattus norvegicus [15] = experiment: Inhibition of DOI-induced hypolocomotion in Sprague-Dawley rat at 1 mg/kg, po administered 25 mins before DOI challenge measured after 10 mins; type: functional
Rattus norvegicus [16] = experiment: Inhibition of DOI-induced hypolocomotion in Sprague-Dawley rat at 3 mg/kg, po administered 25 mins before DOI challenge measured after 10 mins; type: functional
Cytochrome P450 3A4 = Cytochrome P450 3A4 (Homo sapiens, UniProt P08684); experiment: Inhibition of CYP3A4 in human liver microsomes; type: ADME, Microsome
Rattus norvegicus [17] = experiment: Effect on behavioral activity in po dosed Sprague-Dawley rat assessed as increase in sleep consolidation after 5 hrs; type: functional, organism-based
Cytochrome P450 2D6 = Cytochrome P450 2D6 (Homo sapiens, UniProt P10635); experiment: Inhibition of CYP2D6 in human liver microsomes; type: ADME, Microsome
Cytochrome P450 2C19 = Cytochrome P450 2C19 (Homo sapiens, UniProt P33261); experiment: Inhibition of CYP2C19 in human liver microsomes; type: ADME, Microsome
Cytochrome P450 2C9 = Cytochrome P450 2C9 (Homo sapiens, UniProt P11712); experiment: Inhibition of CYP2C9 in human liver microsomes; type: ADME, Microsome
Cytochrome P450 1A2 = molecular target: T2, Cytochrome P450 1A2 (Homo sapiens, UniProt P05177); experiment: Inhibition of CYP1A2 in human liver microsomes; type: ADME, Microsome
T2 sequence (P05177 whole entry): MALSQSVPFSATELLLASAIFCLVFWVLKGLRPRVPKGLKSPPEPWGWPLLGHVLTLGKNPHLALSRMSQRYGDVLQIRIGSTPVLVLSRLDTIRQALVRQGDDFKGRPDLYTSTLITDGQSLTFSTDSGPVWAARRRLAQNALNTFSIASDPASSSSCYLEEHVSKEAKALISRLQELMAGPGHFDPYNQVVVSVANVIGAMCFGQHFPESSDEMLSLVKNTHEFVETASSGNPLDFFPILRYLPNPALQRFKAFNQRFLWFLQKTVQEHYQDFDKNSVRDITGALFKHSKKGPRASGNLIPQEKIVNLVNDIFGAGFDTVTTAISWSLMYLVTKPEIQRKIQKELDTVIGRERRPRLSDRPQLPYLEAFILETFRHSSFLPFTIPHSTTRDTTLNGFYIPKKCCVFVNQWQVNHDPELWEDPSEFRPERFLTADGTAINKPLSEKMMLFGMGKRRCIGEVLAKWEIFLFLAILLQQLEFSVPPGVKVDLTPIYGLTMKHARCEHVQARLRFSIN

Rattus norvegicus [18] = experiment: Effect on behavioral activity in Sprague-Dawley rat assessed as increase in deep sleep at 0.1 mg/kg, po after 1 hr; type: functional, organism-based; parameters: dose 0.1 mg/kg
[19] = Drug level in Sprague-Dawley rat plasma at 0.3 mg/kg, po after 0.75 hrs; type: ADME, organism-based; parameters: dose 0.3 mg/kg, route oral; settings: read-out: Drug uptake
Rattus norvegicus [20] = experiment: Effect on behavioral activity in Sprague-Dawley rat assessed as increase in deep sleep at 0.1 mg/kg, po after 3 to 4 hrs; type: functional, organism-based; parameters: dose 0.1 mg/kg
[21] = Drug level in Sprague-Dawley rat brain at 0.3 mg/kg, po after 0.75 hrs; type: ADME, organism-based; parameters: dose 0.3 mg/kg, route oral; settings: read-out: Drug uptake

5-hydroxytryptamine receptor 2A, sequence (P28223 whole entry): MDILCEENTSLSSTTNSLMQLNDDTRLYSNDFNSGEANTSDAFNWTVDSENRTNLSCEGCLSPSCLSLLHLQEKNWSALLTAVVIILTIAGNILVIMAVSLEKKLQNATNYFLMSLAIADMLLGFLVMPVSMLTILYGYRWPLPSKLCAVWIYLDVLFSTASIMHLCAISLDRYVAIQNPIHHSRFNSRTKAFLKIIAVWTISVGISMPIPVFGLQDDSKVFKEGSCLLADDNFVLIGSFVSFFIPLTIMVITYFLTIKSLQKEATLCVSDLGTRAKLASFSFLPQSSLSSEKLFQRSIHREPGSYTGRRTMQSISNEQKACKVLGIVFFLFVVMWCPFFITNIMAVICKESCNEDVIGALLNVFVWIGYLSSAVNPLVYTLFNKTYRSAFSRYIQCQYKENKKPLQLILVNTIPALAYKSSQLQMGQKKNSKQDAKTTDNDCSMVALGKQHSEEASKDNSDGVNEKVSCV
hERG (KCNH2), sequence (Q12809 whole entry): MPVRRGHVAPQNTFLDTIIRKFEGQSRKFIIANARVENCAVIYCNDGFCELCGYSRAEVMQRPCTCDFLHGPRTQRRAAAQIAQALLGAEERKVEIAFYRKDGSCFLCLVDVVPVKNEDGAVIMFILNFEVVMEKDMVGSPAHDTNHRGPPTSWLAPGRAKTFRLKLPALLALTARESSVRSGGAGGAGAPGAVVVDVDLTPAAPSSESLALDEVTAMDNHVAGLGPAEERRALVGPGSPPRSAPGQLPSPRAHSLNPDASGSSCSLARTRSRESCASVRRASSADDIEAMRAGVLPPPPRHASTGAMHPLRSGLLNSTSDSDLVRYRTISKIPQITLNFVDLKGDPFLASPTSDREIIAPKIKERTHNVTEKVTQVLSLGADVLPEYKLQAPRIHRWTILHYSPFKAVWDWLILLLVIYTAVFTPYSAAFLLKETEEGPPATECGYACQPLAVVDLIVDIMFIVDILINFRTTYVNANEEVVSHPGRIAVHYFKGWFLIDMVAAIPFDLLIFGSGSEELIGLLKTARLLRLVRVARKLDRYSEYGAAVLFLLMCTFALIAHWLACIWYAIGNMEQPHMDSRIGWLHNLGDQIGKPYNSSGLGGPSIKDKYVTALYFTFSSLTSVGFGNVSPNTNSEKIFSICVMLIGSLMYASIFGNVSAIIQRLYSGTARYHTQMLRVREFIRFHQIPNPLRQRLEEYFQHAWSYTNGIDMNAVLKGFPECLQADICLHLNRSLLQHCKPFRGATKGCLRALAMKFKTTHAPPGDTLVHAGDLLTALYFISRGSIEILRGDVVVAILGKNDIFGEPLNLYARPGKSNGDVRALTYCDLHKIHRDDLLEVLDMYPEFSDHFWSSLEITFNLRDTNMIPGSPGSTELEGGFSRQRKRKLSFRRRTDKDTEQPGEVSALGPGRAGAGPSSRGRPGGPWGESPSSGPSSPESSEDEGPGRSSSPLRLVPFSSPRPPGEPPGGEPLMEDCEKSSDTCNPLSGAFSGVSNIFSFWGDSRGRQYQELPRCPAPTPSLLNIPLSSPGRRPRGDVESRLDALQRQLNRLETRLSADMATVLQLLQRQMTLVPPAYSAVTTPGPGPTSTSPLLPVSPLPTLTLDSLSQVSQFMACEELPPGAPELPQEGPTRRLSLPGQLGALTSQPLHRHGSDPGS
Cytochrome P450 2C9, sequence (P11712 whole entry): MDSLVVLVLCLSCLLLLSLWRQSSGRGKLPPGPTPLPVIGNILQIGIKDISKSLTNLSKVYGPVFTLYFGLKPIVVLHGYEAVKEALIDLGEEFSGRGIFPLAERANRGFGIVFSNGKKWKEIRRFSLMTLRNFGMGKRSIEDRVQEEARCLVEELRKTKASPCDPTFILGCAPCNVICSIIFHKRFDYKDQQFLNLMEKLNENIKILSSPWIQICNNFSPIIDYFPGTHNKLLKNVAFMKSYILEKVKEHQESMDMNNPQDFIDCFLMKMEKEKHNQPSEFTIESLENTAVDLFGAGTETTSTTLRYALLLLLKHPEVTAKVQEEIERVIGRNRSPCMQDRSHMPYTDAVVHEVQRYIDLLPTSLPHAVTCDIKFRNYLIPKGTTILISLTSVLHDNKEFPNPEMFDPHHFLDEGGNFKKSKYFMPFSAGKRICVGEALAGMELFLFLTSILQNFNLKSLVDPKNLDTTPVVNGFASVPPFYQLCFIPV
Cytochrome P450 2D6, sequence (P10635 whole entry): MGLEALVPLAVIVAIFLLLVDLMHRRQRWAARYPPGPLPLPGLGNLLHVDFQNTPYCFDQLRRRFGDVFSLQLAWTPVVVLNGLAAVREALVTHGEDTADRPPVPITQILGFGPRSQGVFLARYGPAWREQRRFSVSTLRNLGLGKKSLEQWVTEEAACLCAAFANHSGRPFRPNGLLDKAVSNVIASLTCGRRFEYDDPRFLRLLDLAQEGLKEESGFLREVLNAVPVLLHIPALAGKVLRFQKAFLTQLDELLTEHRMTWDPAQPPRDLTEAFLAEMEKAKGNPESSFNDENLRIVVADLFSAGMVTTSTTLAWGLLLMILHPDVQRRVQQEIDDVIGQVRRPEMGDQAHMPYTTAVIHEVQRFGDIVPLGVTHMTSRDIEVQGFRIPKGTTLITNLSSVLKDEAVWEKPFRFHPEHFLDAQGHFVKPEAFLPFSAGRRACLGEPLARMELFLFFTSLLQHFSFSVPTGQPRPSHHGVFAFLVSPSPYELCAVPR
Cytochrome P450 3A4, sequence (P08684 whole entry): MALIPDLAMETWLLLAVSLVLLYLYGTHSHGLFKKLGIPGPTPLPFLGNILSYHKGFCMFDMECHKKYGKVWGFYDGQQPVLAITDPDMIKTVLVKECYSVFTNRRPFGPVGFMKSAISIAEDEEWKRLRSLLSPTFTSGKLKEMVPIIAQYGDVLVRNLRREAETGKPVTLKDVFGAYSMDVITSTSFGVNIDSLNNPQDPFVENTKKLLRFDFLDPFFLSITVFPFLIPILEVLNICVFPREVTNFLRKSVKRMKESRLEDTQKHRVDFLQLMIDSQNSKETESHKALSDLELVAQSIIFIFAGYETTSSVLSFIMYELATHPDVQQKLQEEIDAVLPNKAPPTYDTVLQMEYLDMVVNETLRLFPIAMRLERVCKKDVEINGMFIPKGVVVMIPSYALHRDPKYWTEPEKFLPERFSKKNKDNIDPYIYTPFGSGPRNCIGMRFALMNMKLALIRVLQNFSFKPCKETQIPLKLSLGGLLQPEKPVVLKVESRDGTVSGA
Cytochrome P450 2C19, sequence (P33261 whole entry): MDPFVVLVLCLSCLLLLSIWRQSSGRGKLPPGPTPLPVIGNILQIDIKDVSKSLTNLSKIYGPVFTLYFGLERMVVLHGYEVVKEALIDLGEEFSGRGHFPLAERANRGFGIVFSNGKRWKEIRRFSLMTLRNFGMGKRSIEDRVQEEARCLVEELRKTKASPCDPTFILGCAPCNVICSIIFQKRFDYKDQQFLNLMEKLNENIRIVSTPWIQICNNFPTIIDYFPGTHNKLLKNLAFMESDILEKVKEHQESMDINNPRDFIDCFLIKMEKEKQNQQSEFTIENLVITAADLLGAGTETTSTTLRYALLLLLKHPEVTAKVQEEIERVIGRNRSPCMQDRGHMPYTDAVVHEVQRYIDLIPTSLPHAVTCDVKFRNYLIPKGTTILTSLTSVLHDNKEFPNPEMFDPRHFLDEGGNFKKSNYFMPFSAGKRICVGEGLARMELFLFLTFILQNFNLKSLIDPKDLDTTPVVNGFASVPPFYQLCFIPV

Ki [1]	Ki [2]	SMILES	also measured
1420 nM	37 nM	Cn1ccc(C(=O)N2CCN(CC(=O)c3ccc(F)cc3)CC2)n1	–
110 nM	0.51 nM	COc1ccc(NC(=O)Nc2ccc(F)cc2F)cc1-c1c(Br)cnn1C [NELOTANSERIN]	concentration at 0.75 h [3]: 488 ng/mL; Kp at 0.75 h [4]: 0.65; concentration at 0.75 h [5]: 320 ng/mL
> 10000 nM	408 nM	COc1ccc(CCN2CCN(C(=O)c3nn(C)cc3Br)CC2)cc1	–
4150 nM	3.6 nM	Cn1cc(Br)c(C(=O)N2CCN(CCc3ccc(F)cc3)CC2)n1	half-life [6]: 84 min; concentration at 0.75 h [3]: 8.3 ng/mL; Cmax [7]: 48 ng/mL; bioavailability [8]: 9%; Kp at 0.75 h [4]: 2.02; AUC(0-t) [9]: 91 ng·h/mL; EC50 (Rattus norvegicus [10]): 3 mg/kg; LBF (Rattus norvegicus [11]): 220%; inhibition at 3 µM (hERG (KCNH2)): 79%; clearance [12]: 155 mL/min/kg; concentration at 0.75 h [5]: 16.8 ng/mL; half-life [13]: 14 min; Vdss (Rattus norvegicus [14]): 8.1 L/kg
2820 nM	1.1 nM	Cn1cc(Br)c(C(=O)N2CCN(CCc3ccc(F)cc3F)CC2)n1	inhibition at 3 µM (hERG (KCNH2)): 80%; half-life [13]: 9 min
> 10000 nM	155 nM	COc1ccc(NC(=O)N2CCN(CCc3ccc(F)cc3)CC2)cc1-c1c(Cl)cnn1C	–
> 10000 nM	18 nM	Cn1cc(Br)c(C(=O)N2CCN(CCc3ccccc3F)CC2)n1	–
> 10000 nM	70 nM	Cn1cc(Br)c(C(=O)N2CCN(CC(=O)c3ccc(F)cc3F)CC2)n1	–
3870 nM	28 nM	Cn1cc(C(F)(F)F)c(C(=O)N2CCN(CC(=O)c3ccc(F)cc3)CC2)n1	–
> 10000 nM	9.3 nM	Cc1cc(C(=O)N2CCN(CC(=O)c3ccc(F)cc3)CC2)nn1C(C)(C)C	–
5610 nM	6000 nM	Cn1cc(Br)c(C(=O)N2CCN(CC(=O)c3ccc(OC(F)(F)F)cc3)CC2)n1	–
3870 nM	4.5 nM	Cn1cc(I)c(C(=O)N2CCN(CC(=O)c3ccc(F)cc3)CC2)n1	–
> 10000 nM	8.5 nM	Cc1cc(C(=O)N2CCN(CC(=O)c3ccc(F)cc3)CC2)nn1C	–
2930 nM	4.6 nM	Cc1c(Br)c(C(=O)N2CCN(CC(=O)c3ccc(F)cc3)CC2)nn1C	inhibition in vivo at 1 mg/kg (Rattus norvegicus [15]): 22%; inhibition at 3 µM (hERG (KCNH2)): 15%; half-life [13]: 29 min; inhibition in vivo at 3 mg/kg (Rattus norvegicus [16]): 65%
> 10000 nM	2.6 nM	CCn1cc(Cl)c(C(=O)N2CCN(CC(=O)c3ccc(F)cc3)CC2)n1	inhibition in vivo at 3 mg/kg (Rattus norvegicus [16]): 54%
2120 nM	–	Cn1cc(Br)c(C(=O)N2CCN(CC(=O)c3ccc(F)cc3)CC2)n1	half-life [6]: 126 min; inhibition (INH) (Cytochrome P450 3A4): Not Active; inhibition in vivo at 1 mg/kg (Rattus norvegicus [15]): 75%; Cmax [7]: 1260 ng/mL; Activity (Rattus norvegicus [17]): Dose-dependent effect; bioavailability [8]: 59%; inhibition (INH) (Cytochrome P450 2D6): Not Active; inhibition (INH) (Cytochrome P450 2C19): Not Active; AUC(0-t) [9]: 1450 ng·h/mL; inhibition (INH) (Cytochrome P450 2C9): Not Active; inhibition (INH) (Cytochrome P450 1A2): Not Active; Activity (Rattus norvegicus [18]): Active; concentration at 0.75 h [19]: 17.8 ng/mL; ED50 (Rattus norvegicus [10]; Rattus norvegicus, Sprague-Dawley, po): 0.3 mg/kg; Activity (Rattus norvegicus [20]): Active; clearance [12]: 66.7 mL/min/kg; concentration at 0.75 h [21]: 20.8 ng/mL; half-life [13]: > 60 min; Vdss (Rattus norvegicus [14]): 1.5 L/kg; inhibition in vivo at 3 mg/kg (Rattus norvegicus [16]): 65%
> 10000 nM	88 nM	O=C(Nc1[nH]ncc1Br)N1CCN(CCc2ccc(F)cc2)CC1	–
> 10000 nM	542 nM	Cn1cc(Br)c(C(=O)N2CCN(CCc3cccc(F)c3)CC2)n1	–
8600 nM	2470 nM	CO/N=C(/CN1CCN(C(=O)c2nn(C)cc2Br)CC1)c1ccc(F)cc1	–
2750 nM	18.5 nM	O=C(CN1CCN(C(=O)c2n[nH]cc2Cl)CC1)c1ccc(F)cc1	–
> 10000 nM	36 nM	Cc1cc(C(=O)N2CCN(CC(=O)c3ccc(F)cc3)CC2)[nH]n1	–
> 10000 nM	68 nM	Cn1cc(Br)c(C(=O)N2CCN(CCc3ccccc3)CC2)n1	–
> 10000 nM	865 nM	Cn1cc(Br)c(C(=O)N2CCN(CC(=O)c3ccc(C(F)(F)F)cc3)CC2)n1	–
> 10000 nM	368 nM	Cn1cc(Br)c(C(=O)N2CCN(CC(O)c3ccc(F)cc3)CC2)n1 (centres undefined)	–
> 10000 nM	34 nM	Cn1cc(Br)c(C(=O)N2CCN(CCc3ccc(Cl)cc3)CC2)n1	–
9800 nM	270 nM	Cn1cc(Br)c(C(=O)N2CCN(CC(=O)c3ccccc3F)CC2)n1	–
3570 nM	4.6 nM	Cc1[nH]nc(C(=O)N2CCN(CC(=O)c3ccc(F)cc3)CC2)c1Br	–
645 nM	0.48 nM	N#Cc1c[nH]c2c(C(=O)N3CCN(CCc4ccc(F)cc4)CC3)cccc12 [PRUVANSERIN]	–
3710 nM	11 nM	Cc1cc(C(=O)N2CCN(CC(=O)c3ccc(F)cc3)CC2)nn1-c1ccccc1	–

SMILES	Ki [1]	Ki [2]	also measured
Cc1nc2n(c(=O)c1CCN1CCN(C(=O)c3nn(C)cc3Br)CC1)CCCC2	> 10000 nM	> 10000 nM	–
Cn1cc(Br)c(C(=O)N2CCN(CCN3C(=O)c4ccccc4C3=O)CC2)n1	> 10000 nM	> 10000 nM	–
